Converted amounts (≈) assume the structure as drawn.
How the values were obtained:
Format in all cases: cell-based
E. coli A20107 = test: MIC by Steers agar-dilution method on Mueller-Hinton medium; conditions: Escherichia coli; E. coli A20107; Mueller-Hinton medium; read-out: MIC
Excerpt: (§1) Illustrated below is a table showing the minimal inhibitory concentrations (MIC's) of butirosin A, 4'-deoxybutirosin A and compound 11 (BB-K186) against a variety of gram-positive and gram-negativebacteria as obtained by the Steers agar-dilution method on Mueller-Hinton medium.

E. coli A20732 = test: as above; conditions: Escherichia coli; E. coli A20732; Mueller-Hinton medium; read-out: MIC
Excerpt: as §1

E. coli A20895 = test: as above; conditions: Escherichia coli; E. coli A20895; Mueller-Hinton medium; read-out: MIC
Excerpt: as §1

E. coli JR35/C600 = test: as above; conditions: Escherichia coli
Excerpt: as §1

E. coli JR66/W677 = test: as above; conditions: Escherichia coli
Excerpt: as §1

E. coli ML1630 = test: as above; conditions: Escherichia coli; E. coli ML1630; Mueller-Hinton medium; read-out: MIC
Excerpt: as §1

E. coli NIHJ = test: as above; conditions: Escherichia coli; E. coli NIHJ; Mueller-Hinton medium; read-out: MIC
Excerpt: as §1

E. coli NR79/W677 = test: as above; conditions: Escherichia coli
Excerpt: as §1

E. coli PO1495 = test: as above; conditions: Escherichia coli
Excerpt: as §1

E. coli R5 = test: as above; conditions: Escherichia coli; E. coli R5; Mueller-Hinton medium; read-out: MIC
Excerpt: as §1

Ent. cloacae A20364 = test: as above; conditions: Enterobacter cloacae; Ent. cloacae A20364; Mueller-Hinton medium; read-out: MIC
Excerpt: as §1

Ent. cloacae A21006 = test: as above; conditions: Enterobacter cloacae; Ent. cloacae A21006; Mueller-Hinton medium; read-out: MIC
Excerpt: as §1

K. pneumoniae 22-3038 = test: as above; conditions: Klebsiella pneumoniae, 223038; K. pneumoniae 22-3038; Mueller-Hinton medium; read-out: MIC
Excerpt: as §1

K. pneumoniae D11 = test: as above; conditions: Klebsiella pneumoniae; K. pneumoniae D11; Mueller-Hinton medium; read-out: MIC
Excerpt: as §1

Pr. mirabilis A9554 = test: as above; conditions: Proteus mirabilis; Pr. mirabilis A9554; Mueller-Hinton medium; read-out: MIC
Excerpt: as §1

Pr. morganii A20031 = test: as above; conditions: Morganella morganii; Pr. morganii A20031; Mueller-Hinton medium; read-out: MIC
Excerpt: as §1

Pr. vulgaris A9436 = test: as above; conditions: Proteus vulgaris; Pr. vulgaris A9436; Mueller-Hinton medium; read-out: MIC
Excerpt: as §1

Prov. stuartii A20894 = test: as above; conditions: Providencia stuartii; Prov. stuartii A20894; Mueller-Hinton medium; read-out: MIC
Excerpt: as §1

Ps. aeruginosa A20601 = test: as above; conditions: Pseudomonas aeruginosa; Ps. aeruginosa A20601; Mueller-Hinton medium; read-out: MIC
Excerpt: as §1

Ps. aeruginosa A20635 = test: as above; conditions: Pseudomonas aeruginosa; Ps. aeruginosa A20635; Mueller-Hinton medium; read-out: MIC
Excerpt: as §1

Ps. aeruginosa A20896 = test: as above; conditions: Pseudomonas aeruginosa; Ps. aeruginosa A20896; Mueller-Hinton medium; read-out: MIC
Excerpt: as §1

Ps. aeruginosa A9930 = test: as above; conditions: Pseudomonas aeruginosa; Ps. aeruginosa A9930; Mueller-Hinton medium; read-out: MIC
Excerpt: as §1

Ps. aeruginosa GN-315 = test: as above; conditions: Pseudomonas aeruginosa, GN315; Ps. aeruginosa GN-315; Mueller-Hinton medium; read-out: MIC
Excerpt: as §1

Ps. aeruginosa No. 130 = test: as above; conditions: Pseudomonas aeruginosa; Ps. aeruginosa No. 130; Mueller-Hinton medium; read-out: MIC
Excerpt: as §1

Pseudomonas sp. A20621 = test: as above; conditions: Pseudomonas sp. A20621; Mueller-Hinton medium; read-out: MIC
Excerpt: as §1

S. aureus A20239 = test: as above; conditions: Staphylococcus aureus; S. aureus A20239; Mueller-Hinton medium; read-out: MIC
Excerpt: as §1

S. aureus D133 = test: as above; conditions: Staphylococcus aureus; S. aureus D133; Mueller-Hinton medium; read-out: MIC
Excerpt: as §1

S. aureus D137 = test: as above; conditions: Staphylococcus aureus; S. aureus D137; Mueller-Hinton medium; read-out: MIC
Excerpt: as §1

S. aureus D193 = test: as above; conditions: Staphylococcus aureus; S. aureus D193; Mueller-Hinton medium; read-out: MIC
Excerpt: as §1

S. aureus Smith = test: as above; conditions: Staphylococcus aureus; S. aureus Smith; Mueller-Hinton medium; read-out: MIC
Excerpt: as §1

Ser. marcescens A20019 = test: as above; conditions: Serratia marcescens; Ser. marcescens A20019; Mueller-Hinton medium; read-out: MIC
Excerpt: as §1

Ser. marcescens A21247 = test: as above; conditions: Serratia marcescens; Ser. marcescens A21247; Mueller-Hinton medium; read-out: MIC
Excerpt: as §1

[1] = test system: a variety of gram-positive and gram-negative bacteria; test: Antibacterial activity overall (MIC, Steers agar-dilution method); conditions: in words
Excerpt: as §1

Pseudomonas aeruginosa = test: Antibacterial activity against Pseudomonas aeruginosa (MIC, Steers agar-dilution method); conditions: in words
Excerpt: as §1

Structure (SMILES): NCC[C@H](O)C(=O)N[C@@H]1C[C@H](N)[C@@H](O[C@H]2O[C@H](CN)C[C@H](O)[C@H]2N)[C@H](O[C@@H]2O[C@H](CO)[C@H](O)[C@H]2O)[C@H]1O [Bu-1975C1, 4'-deoxybutirosin A]
- MIC (E. coli A20107): 3.1 µg/mL (≈ 5.75 µM)
- MIC (E. coli A20732): 1.6 µg/mL (≈ 2.97 µM)
- MIC (E. coli A20895): 3.1 µg/mL (≈ 5.75 µM)
- MIC (E. coli JR35/C600): 0.8 µg/mL (≈ 1.48 µM)
- MIC (E. coli JR66/W677): 6.3 µg/mL (≈ 11.7 µM)
- MIC (E. coli ML1630): 3.1 µg/mL (≈ 5.75 µM)
- MIC (E. coli NIHJ): 1.6 µg/mL (≈ 2.97 µM)
- MIC (E. coli NR79/W677): > 100 µg/mL
- MIC (E. coli PO1495): 1.6 µg/mL (≈ 2.97 µM)
- MIC (E. coli R5): 3.1 µg/mL (≈ 5.75 µM)
- MIC (Ent. cloacae A20364): 3.1 µg/mL (≈ 5.75 µM)
- MIC (Ent. cloacae A21006): 6.3 µg/mL (≈ 11.7 µM)
- MIC (K. pneumoniae 22-3038): 6.3 µg/mL (≈ 11.7 µM)
- MIC (K. pneumoniae D11): 0.8 µg/mL (≈ 1.48 µM)
- MIC (Pr. mirabilis A9554): 1.6 µg/mL (≈ 2.97 µM)
- MIC (Pr. morganii A20031): 3.1 µg/mL (≈ 5.75 µM)
- MIC (Pr. vulgaris A9436): 0.8 µg/mL (≈ 1.48 µM)
- MIC (Prov. stuartii A20894): > 100 µg/mL
- MIC (Ps. aeruginosa A20601): 25 µg/mL (≈ 46.3 µM)
- MIC (Ps. aeruginosa A20635): > 100 µg/mL
- MIC (Ps. aeruginosa A20896): 50 µg/mL (≈ 92.7 µM)
- MIC (Ps. aeruginosa A9930): 1.6 µg/mL (≈ 2.97 µM)
- MIC (Ps. aeruginosa GN-315): > 100 µg/mL
- MIC (Ps. aeruginosa No. 130): 25 µg/mL (≈ 46.3 µM)
- MIC (Pseudomonas sp. A20621): > 100 µg/mL
- MIC (S. aureus A20239): 6.3 µg/mL (≈ 11.7 µM)
- MIC (S. aureus D133): 6.3 µg/mL (≈ 11.7 µM)
- MIC (S. aureus D137): 25 µg/mL (≈ 46.3 µM)
- MIC (S. aureus D193): 3.1 µg/mL (≈ 5.75 µM)
- MIC (S. aureus Smith): 1.6 µg/mL (≈ 2.97 µM)
- MIC (Ser. marcescens A20019): 6.3 µg/mL (≈ 11.7 µM)
- MIC (Ser. marcescens A21247): 6.3 µg/mL (≈ 11.7 µM)

Structure (SMILES): NCC[C@H](O)C(=O)N[C@@H]1C[C@H](N)[C@@H](O[C@H]2O[C@H](CN)[C@@H](O)C[C@H]2N)[C@H](O[C@@H]2O[C@H](CO)[C@H](O)[C@H]2O)[C@H]1O [Compound 11, 3'-deoxybutirosin A]
- MIC (E. coli A20107): 3.1 µg/mL (≈ 5.75 µM)
- MIC (E. coli A20732): 1.6 µg/mL (≈ 2.97 µM)
- MIC (E. coli A20895): 3.1 µg/mL (≈ 5.75 µM)
- MIC (E. coli JR35/C600): 0.8 µg/mL (≈ 1.48 µM)
- MIC (E. coli JR66/W677): 3.1 µg/mL (≈ 5.75 µM)
- MIC (E. coli ML1630): 3.1 µg/mL (≈ 5.75 µM)
- MIC (E. coli NIHJ): 1.6 µg/mL (≈ 2.97 µM)
- MIC (E. coli NR79/W677): > 100 µg/mL
- MIC (E. coli PO1495): 1.6 µg/mL (≈ 2.97 µM)
- MIC (E. coli R5): 3.1 µg/mL (≈ 5.75 µM)
- MIC (Ent. cloacae A20364): 1.6 µg/mL (≈ 2.97 µM)
- MIC (Ent. cloacae A21006): 3.1 µg/mL (≈ 5.75 µM)
- MIC (K. pneumoniae 22-3038): 3.1 µg/mL (≈ 5.75 µM)
- MIC (K. pneumoniae D11): 0.8 µg/mL (≈ 1.48 µM)
- MIC (Pr. mirabilis A9554): 1.6 µg/mL (≈ 2.97 µM)
- MIC (Pr. morganii A20031): 3.1 µg/mL (≈ 5.75 µM)
- MIC (Pr. vulgaris A9436): 0.4 µg/mL (≈ 0.741 µM)
- MIC (Prov. stuartii A20894): 25 µg/mL (≈ 46.3 µM)
- MIC (Ps. aeruginosa A20601): 12.5 µg/mL (≈ 23.2 µM)
- MIC (Ps. aeruginosa A20635): 25 µg/mL (≈ 46.3 µM)
- MIC (Ps. aeruginosa A20896): 50 µg/mL (≈ 92.7 µM)
- MIC (Ps. aeruginosa A9930): 0.8 µg/mL (≈ 1.48 µM)
- MIC (Ps. aeruginosa GN-315): > 100 µg/mL
- MIC (Ps. aeruginosa No. 130): 12.5 µg/mL (≈ 23.2 µM)
- MIC (Pseudomonas sp. A20621): 100 µg/mL (≈ 185 µM)
- MIC (S. aureus A20239): 3.1 µg/mL (≈ 5.75 µM)
- MIC (S. aureus D133): 3.1 µg/mL (≈ 5.75 µM)
- MIC (S. aureus D137): 12.5 µg/mL (≈ 23.2 µM)
- MIC (S. aureus D193): 1.6 µg/mL (≈ 2.97 µM)
- MIC (S. aureus Smith): 0.8 µg/mL (≈ 1.48 µM)
- MIC (Ser. marcescens A20019): 6.3 µg/mL (≈ 11.7 µM)
- MIC (Ser. marcescens A21247): 3.1 µg/mL (≈ 5.75 µM)
- antibacterial activity compared with butirosin A and 4'-deoxybutirosin A [1]: good antibacterial activity that in many respects is superior to butirosin A itself and in some respects superior to 4'-deoxybutirosin A
- antibacterial activity compared with butirosin A and 4'-deoxybutirosin A ([1]; listed as compound 11): equal to or superior in most respects to butirosin A and 4'-deoxybutirosin A
- activity against Pseudomonas aeruginosa (Pseudomonas aeruginosa): particularly improved in its activity against Pseudomonas aeruginosa
